Experimental data from ChEMBL document CHEMBL5291721, “A preclinical secondary pharmacology resource illuminates target-adverse drug reaction associations of marketed drugs” (Nat Commun, 2023).

What was measured:
[1] = target: Bile salt export pump (Homo sapiens, UniProt O95342); assay type: functional
[2] = target: 5-hydroxytryptamine receptor 2B (Homo sapiens, UniProt P41595); assay type: functional, cell-based
[3] = target: Motilin receptor (Homo sapiens, UniProt O43193)
[4] = target: T1, 5-hydroxytryptamine receptor 3A (Homo sapiens, UniProt P46098); assay type: functional
T1 sequence (P46098 whole entry): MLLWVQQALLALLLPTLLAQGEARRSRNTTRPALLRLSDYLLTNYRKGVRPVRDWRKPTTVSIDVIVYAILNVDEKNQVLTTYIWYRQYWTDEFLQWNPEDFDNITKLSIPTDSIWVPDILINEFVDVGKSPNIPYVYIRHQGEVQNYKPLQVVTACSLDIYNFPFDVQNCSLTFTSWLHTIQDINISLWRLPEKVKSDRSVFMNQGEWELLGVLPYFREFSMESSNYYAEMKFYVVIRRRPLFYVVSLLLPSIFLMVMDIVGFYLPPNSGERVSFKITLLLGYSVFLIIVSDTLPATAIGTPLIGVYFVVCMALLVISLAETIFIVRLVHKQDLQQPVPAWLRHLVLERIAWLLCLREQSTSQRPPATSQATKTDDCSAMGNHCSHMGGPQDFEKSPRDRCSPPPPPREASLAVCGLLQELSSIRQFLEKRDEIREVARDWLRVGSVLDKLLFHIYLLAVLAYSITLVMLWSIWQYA

[5] = target: Delta-type opioid receptor (Homo sapiens, UniProt P41143)
[6] = target: D(1A) dopamine receptor (Homo sapiens, UniProt P21728); assay type: functional, cell-based
[7] = target: Growth hormone secretagogue receptor type 1 (Homo sapiens, UniProt Q92847)
[8] = target: T2, Type-1 angiotensin II receptor (Homo sapiens, UniProt P30556)
T2 sequence (P30556 whole entry): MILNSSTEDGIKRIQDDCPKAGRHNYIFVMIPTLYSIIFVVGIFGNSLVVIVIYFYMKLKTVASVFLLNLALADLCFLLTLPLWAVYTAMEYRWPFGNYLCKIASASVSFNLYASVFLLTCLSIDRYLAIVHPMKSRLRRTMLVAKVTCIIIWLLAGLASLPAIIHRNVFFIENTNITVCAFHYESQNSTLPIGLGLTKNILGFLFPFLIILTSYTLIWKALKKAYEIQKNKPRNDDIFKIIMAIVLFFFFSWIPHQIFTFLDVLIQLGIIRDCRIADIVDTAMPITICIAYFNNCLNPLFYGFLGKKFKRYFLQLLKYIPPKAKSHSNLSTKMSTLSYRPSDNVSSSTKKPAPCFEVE

[9] = target: cGMP-inhibited 3',5'-cyclic phosphodiesterase 3A (Homo sapiens, UniProt Q14432); assay type: functional
[10] = target: Gamma-aminobutyric acid receptor subunit alpha-1 (Rattus norvegicus, UniProt P62813); assay type: functional
[11] = target: T3, Equilibrative nucleoside transporter 1 (Homo sapiens, UniProt Q99808)
T3 sequence (Q99808 whole entry): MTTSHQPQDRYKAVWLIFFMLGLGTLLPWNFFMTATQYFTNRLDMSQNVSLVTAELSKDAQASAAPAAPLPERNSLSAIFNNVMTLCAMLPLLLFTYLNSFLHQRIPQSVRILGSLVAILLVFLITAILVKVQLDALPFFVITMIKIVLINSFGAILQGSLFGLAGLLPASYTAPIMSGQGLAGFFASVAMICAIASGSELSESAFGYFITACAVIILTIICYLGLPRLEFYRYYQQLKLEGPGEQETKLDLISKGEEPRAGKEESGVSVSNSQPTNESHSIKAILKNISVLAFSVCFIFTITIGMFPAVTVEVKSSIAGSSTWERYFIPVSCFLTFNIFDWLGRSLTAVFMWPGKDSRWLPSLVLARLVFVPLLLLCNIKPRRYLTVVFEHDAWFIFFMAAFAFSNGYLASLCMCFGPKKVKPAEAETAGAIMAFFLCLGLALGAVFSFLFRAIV

[12] = target: T4, Adenosine receptor A3 (Homo sapiens, UniProt P0DMS8)
T4 sequence (P0DMS8 whole entry): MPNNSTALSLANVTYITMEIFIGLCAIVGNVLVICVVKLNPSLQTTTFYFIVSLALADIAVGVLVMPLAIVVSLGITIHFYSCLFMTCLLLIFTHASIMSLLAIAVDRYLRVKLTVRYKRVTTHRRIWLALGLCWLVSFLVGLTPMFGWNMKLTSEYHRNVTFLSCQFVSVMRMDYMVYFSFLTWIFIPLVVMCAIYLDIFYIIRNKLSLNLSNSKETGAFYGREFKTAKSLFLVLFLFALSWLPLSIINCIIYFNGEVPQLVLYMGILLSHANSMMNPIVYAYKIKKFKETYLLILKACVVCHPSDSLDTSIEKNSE

[13] = target: D(3) dopamine receptor (Homo sapiens, UniProt P35462)
[14] = target: T5, Prostaglandin G/H synthase 1 (Rattus norvegicus, UniProt Q63921); assay type: functional
T5 sequence (Q63921 whole entry): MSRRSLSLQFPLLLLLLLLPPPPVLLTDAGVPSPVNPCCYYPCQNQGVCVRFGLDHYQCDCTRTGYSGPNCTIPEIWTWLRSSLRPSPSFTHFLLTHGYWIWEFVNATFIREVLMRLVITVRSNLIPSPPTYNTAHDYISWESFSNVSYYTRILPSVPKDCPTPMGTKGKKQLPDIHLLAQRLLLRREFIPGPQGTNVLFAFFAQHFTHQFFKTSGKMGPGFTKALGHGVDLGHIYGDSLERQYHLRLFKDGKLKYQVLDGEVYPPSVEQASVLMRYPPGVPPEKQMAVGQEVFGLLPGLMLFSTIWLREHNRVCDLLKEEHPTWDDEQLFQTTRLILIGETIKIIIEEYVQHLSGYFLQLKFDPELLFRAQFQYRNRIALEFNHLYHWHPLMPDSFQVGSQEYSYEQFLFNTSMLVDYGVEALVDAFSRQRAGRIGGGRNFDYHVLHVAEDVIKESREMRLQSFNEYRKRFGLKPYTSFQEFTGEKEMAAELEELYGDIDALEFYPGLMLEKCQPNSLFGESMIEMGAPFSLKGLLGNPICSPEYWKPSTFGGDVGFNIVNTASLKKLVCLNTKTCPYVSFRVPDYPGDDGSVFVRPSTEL
Further: assay procedure not described here.

Sequence of 5-hydroxytryptamine receptor 2B (P41595 whole entry): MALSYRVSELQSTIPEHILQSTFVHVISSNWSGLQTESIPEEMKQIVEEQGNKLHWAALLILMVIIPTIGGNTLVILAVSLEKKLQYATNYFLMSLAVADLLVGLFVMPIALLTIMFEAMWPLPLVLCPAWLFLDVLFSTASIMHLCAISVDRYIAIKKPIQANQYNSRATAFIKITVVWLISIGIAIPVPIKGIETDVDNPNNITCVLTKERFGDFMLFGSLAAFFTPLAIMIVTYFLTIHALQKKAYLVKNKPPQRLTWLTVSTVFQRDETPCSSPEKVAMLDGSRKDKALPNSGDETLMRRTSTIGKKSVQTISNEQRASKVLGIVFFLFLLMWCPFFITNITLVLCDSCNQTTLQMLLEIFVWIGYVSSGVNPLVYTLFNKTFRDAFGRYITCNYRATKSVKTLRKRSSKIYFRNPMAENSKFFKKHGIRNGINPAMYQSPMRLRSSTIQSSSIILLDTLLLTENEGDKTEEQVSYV
Sequence of D(1A) dopamine receptor (P21728 whole entry): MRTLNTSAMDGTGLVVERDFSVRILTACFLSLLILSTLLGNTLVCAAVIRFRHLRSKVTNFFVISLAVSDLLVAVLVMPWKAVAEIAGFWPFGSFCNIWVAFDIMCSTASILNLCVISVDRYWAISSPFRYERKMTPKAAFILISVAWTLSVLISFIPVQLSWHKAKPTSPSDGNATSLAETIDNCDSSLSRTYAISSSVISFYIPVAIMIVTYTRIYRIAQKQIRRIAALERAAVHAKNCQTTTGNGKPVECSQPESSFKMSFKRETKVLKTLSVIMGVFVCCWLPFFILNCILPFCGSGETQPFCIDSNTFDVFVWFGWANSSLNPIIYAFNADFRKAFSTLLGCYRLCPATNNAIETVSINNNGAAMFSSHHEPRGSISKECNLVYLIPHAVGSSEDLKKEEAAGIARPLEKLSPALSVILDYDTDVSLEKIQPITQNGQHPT
Sequence of Bile salt export pump (O95342 whole entry): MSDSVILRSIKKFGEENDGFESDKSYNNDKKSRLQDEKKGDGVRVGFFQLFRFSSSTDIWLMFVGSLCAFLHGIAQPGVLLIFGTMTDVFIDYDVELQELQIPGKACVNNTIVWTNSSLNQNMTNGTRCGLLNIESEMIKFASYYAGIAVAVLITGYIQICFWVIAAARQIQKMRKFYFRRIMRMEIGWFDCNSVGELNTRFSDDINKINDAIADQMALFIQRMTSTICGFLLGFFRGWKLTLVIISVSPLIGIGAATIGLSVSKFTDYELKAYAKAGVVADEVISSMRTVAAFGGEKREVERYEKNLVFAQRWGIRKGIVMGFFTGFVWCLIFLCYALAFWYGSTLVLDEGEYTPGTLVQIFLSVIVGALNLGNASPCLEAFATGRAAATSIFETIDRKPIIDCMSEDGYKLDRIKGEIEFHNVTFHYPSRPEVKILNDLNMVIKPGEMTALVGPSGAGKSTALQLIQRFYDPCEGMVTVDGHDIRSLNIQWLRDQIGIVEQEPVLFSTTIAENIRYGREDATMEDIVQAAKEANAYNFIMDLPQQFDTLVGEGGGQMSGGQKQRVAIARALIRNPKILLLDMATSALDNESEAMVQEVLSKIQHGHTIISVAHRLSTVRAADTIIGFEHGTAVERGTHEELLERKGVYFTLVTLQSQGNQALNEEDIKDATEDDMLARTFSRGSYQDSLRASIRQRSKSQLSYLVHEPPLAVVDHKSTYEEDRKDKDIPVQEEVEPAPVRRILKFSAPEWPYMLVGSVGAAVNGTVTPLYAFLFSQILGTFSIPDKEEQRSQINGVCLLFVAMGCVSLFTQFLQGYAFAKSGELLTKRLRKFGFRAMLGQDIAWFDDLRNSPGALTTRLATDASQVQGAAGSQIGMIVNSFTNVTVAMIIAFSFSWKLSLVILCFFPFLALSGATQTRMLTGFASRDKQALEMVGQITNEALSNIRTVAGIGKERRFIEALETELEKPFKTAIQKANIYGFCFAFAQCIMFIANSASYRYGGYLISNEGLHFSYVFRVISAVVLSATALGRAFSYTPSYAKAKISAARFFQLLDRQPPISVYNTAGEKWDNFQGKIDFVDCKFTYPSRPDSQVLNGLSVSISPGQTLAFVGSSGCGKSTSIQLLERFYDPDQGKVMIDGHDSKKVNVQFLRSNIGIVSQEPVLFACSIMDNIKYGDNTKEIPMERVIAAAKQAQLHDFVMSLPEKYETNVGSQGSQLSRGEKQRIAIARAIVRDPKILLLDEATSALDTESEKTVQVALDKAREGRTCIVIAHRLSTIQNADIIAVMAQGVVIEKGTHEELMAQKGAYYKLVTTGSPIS
Sequence of Growth hormone secretagogue receptor type 1 (Q92847 whole entry): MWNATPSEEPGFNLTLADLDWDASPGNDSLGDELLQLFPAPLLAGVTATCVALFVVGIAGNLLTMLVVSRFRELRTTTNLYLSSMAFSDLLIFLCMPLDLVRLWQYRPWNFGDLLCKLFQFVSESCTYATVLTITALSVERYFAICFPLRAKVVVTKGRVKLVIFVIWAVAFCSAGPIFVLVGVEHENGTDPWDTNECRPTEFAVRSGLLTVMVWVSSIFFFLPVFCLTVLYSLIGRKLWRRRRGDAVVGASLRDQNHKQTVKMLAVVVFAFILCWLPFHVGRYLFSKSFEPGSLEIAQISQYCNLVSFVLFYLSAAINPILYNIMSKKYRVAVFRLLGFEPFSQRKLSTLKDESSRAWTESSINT
Sequence of D(3) dopamine receptor (P35462 whole entry): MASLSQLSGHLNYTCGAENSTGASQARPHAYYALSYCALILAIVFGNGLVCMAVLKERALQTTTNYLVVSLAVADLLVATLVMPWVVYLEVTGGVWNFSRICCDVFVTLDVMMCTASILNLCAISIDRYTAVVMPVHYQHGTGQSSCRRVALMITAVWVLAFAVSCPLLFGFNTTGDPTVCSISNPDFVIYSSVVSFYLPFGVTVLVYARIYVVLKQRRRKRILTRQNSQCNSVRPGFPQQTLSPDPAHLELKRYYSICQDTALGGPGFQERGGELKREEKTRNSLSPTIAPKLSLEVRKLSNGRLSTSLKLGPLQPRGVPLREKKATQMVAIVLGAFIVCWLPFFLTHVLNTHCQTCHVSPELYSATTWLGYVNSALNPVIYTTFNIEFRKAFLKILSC
Sequence of Motilin receptor (O43193 whole entry): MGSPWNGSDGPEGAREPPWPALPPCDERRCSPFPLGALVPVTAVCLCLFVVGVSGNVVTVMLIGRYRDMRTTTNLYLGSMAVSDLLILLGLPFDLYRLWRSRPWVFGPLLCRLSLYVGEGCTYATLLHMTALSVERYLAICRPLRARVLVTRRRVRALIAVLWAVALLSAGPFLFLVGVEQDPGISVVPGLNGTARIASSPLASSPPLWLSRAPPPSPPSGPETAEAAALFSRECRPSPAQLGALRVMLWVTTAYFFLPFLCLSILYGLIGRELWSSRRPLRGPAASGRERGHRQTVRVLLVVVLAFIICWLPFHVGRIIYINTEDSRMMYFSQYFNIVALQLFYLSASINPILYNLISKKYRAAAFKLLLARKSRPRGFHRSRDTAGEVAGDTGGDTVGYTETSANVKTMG
Sequence of cGMP-inhibited 3',5'-cyclic phosphodiesterase 3A (Q14432 whole entry): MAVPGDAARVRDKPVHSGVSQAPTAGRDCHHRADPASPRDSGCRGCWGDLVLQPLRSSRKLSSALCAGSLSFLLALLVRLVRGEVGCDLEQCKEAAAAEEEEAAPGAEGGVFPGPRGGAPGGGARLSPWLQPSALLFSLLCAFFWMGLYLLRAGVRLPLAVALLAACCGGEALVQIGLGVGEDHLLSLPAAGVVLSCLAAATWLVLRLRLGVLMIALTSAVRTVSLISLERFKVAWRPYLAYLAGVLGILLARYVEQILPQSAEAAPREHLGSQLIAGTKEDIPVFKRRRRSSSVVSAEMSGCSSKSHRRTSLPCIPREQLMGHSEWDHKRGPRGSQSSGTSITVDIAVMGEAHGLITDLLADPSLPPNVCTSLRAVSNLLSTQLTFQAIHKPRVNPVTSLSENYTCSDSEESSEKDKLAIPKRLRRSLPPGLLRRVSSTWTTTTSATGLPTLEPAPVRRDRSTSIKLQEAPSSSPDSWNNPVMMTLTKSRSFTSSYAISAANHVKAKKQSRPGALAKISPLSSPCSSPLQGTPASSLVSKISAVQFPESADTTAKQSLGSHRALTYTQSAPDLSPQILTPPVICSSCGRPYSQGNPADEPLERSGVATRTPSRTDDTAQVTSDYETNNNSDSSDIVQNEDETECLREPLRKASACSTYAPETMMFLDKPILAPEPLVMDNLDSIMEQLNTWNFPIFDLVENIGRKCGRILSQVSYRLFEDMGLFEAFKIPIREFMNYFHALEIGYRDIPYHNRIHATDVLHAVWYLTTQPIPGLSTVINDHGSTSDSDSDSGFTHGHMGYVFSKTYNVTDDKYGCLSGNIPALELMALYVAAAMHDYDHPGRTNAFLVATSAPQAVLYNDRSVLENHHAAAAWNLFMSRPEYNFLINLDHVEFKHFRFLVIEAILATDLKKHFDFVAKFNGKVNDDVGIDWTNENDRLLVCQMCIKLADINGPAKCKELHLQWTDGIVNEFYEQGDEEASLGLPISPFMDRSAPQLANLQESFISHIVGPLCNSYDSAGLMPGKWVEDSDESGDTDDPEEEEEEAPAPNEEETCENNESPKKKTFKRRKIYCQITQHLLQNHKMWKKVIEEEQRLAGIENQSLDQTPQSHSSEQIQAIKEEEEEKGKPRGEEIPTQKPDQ
Sequence of Gamma-aminobutyric acid receptor subunit alpha-1 (P62813 whole entry): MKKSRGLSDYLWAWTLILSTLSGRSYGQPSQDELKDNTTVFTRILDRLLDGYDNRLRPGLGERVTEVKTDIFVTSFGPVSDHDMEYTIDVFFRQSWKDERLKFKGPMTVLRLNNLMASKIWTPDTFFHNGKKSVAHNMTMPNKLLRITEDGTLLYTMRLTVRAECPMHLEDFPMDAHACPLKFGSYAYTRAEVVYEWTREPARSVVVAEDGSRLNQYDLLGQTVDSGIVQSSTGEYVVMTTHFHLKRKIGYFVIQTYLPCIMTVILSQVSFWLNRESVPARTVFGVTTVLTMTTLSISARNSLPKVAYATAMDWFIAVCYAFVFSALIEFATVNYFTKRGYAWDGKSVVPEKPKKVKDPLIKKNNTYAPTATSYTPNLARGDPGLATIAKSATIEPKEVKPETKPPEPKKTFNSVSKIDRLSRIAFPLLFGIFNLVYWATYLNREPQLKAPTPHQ

Compound | AC50 [1] [µM] | AC50 [2] [µM] | AC50 [3] [µM] | AC50 [4] [µM] | AC50 [5] [µM] | AC50 [6] [µM] | AC50 [7] [µM] | AC50 [8] [µM] | AC50 [9] [µM] | AC50 [10] [µM] | AC50 [11] [µM] | AC50 [12] [µM] | AC50 [13] [µM] | AC50 [14] [µM]
Cc1cc(C)cc(OCC2CNC(=O)O2)c1 (centres undefined) [METAXALONE] | > 300 | – | – | – | – | – | – | – | – | – | – | – | – | –
N#Cc1ccnc(N2C(=O)CC[C@H]2C(=O)N(c2cncc(F)c2)[C@H](C(=O)NC2CC(F)(F)C2)c2ccccc2Cl)c1 [IVOSIDENIB] | 79 | – | – | – | – | – | – | – | – | – | – | – | – | –
CCOC(=O)Nc1ccc(NCc2ccc(F)cc2)nc1N [FLUPIRTINE] | 85 | > 30 | > 30 | > 30 | > 30 | > 30 | > 30 | > 30 | > 30 | > 30 | > 30 | 21 | > 30 | –
CC(C)/N=c1\cc2n(-c3ccc(Cl)cc3)c3ccccc3nc-2cc1Nc1ccc(Cl)cc1 [CLOFAZIMINE] | 12 | > 30 | > 30 | > 30 | 26 | > 30 | 0.92 | > 30 | > 30 | 20 | – | > 30 | > 30 | > 30
CC1=C(C/C=C(\C)CCC[C@H](C)CCC[C@H](C)CCCC(C)C)C(=O)c2ccccc2C1=O [PHYTONADIONE] | 160 | – | – | – | – | – | – | – | – | – | – | – | – | –
CCCCCCO[C@@H](C)c1cccc(-c2csc(NC(=O)c3cc(Cl)c(/C=C(\C)C(=O)O)c(Cl)c3)n2)c1OC [LUSUTROMBOPAG] | 4 | – | – | – | – | – | – | – | – | – | – | – | – | –
O=C(Cc1cccs1)N[C@@H]1C(=O)N2C(C(=O)[O-])=C(C[n+]3ccccc3)CS[C@H]12 [CEPHALORIDINE] | – | > 30 | – | > 30 | > 30 | > 30 | – | – | > 30 | > 30 | – | – | > 30 | –
CCCCCCCC/C=C\CCCCCCCC(=O)O [OLEIC ACID] | 260 | – | – | – | – | – | – | – | – | – | – | – | – | –
O=c1[nH]c2ccccc2n1CCN1CCN(c2cccc(C(F)(F)F)c2)CC1 [FLIBANSERIN] | 29 | – | – | – | – | – | – | – | – | – | – | – | – | –
C#CCN(C)Cc1ccccc1 [PARGYLINE] | – | > 30 | – | > 30 | > 30 | > 30 | – | – | > 30 | > 30 | – | – | – | –
CN(C)CCCC1(c2ccc(F)cc2)OCc2cc(C#N)ccc21 (centres undefined) [CITALOPRAM] | > 300 | > 30 | > 10 | > 30 | > 30 | – | > 30 | > 30 | > 30 | > 10 | > 30 | > 30 | – | > 30
CC(C)NCC(O)COc1ccc(CC(N)=O)cc1 (centres undefined) [ATENOLOL] | > 300 | – | > 30 | > 30 | > 30 | – | > 30 | > 30 | > 30 | – | > 30 | > 30 | > 30 | > 30
C=CCOc1ccc(CC(=O)O)cc1Cl [ALCLOFENAC] | > 300 | – | – | – | – | – | – | – | – | – | – | – | – | –
